The text below walks through data of patent US12447171B2 (CELGENE QUANTICEL RESEARCH, INC., priority 2019, dated 2025).

Assay [1] has as its system MCL-1. The experiment in a line: Western blot of MCL-1 in AML cell lines. Type of assay: cell-based. As for the experimental part: Lysates were quantified using a bicinchoninic acid (BCA) kit (Piece/Thermo Fisher, Waltham, MA). 20 to 30 μg protein was resolved on a 4-12% SDS-PAGE gel, transferred to PVDF membranes (80V/90 minute by wet-transfer), and blocked with Oddysey TBS blocking buffer for 1 hour and then probed with appropriate primary antibodies overnight at 4° C. using dilution as recommended by manufacturer. Membranes were washed three times for a total of 30 minutes and then incubated with secondary antibodies at room temperature in the dark for 1 hour. After another three washes, Odyssey infrared imaging system and companion software (LI-COR biosciences, Lincoln, NE, USA) were used to scan immunoblot membranes and to quantify band intensity according to the manufacturer's instructions. The ratio of proteins of interest to loading control in treated samples was normalized to the corresponding ratio in untreated cells. Antibodies used for immunoblotting were purchased from the following sources: BCL-2 (sc-7382), MCL1- (sc-819) from Santa Cruz Biotechnology (Dallas, TX, USA, Bim (2819), caspase-3 (9664) from Cell Signaling Technology; beta-Actin (A2228) from Sigma-Aldrich; DNMTI (ab188453) from AbCam; TRDye 680 goat anti-rabbit and IRDye 800 goat anti-mouse secondary antibodies (#925-68073 and #925-32212) were purchased from Li-COR Biosciences (Lincoln, NE).
On the technique in general: In western blotting, separated proteins are transferred to a membrane and probed.

Assay [2] concerns MOLM-13 xenograft model. The experiment in a line: Disseminated MOLM-13 xenograft survival study. Type of assay: in vivo, mice. The settings on record: for Median survival: MOLM-13, NOD/SCID mice, vehicle=19 days; for survival compared to vehicle alone: MOLM-13. The method, then: (§1) LEED models oral administration of AZA, while HELD models intravenous or subcutaneous administration of AZA.
The animals were fed ad libitum water (reverse osmosis, 1 ppm Cl), and NIH 31 Modified and Irradiated Lab Diet® consisting of 18.0% crude protein, 5.0% crude fat, and 5.0% crude fiber. The mice were housed on irradiated Enrich-o'cobs™ Laboratory Animal Bedding in static microisolators on a 12-hour light cycle at 20-22° C. (68-72° F.) and 40-60% humidity.
(§2) On each day of dosing, an appropriate amount of gilteritinib was dissolved in 0.5% methylcellulose in DI water to yield a dosing solution at 0.4 mg/mL. Each week, an appropriate amount of venetoclax was dissolved in 10% ethanol:30% PEG400:60% phosal 50 propylene glycol to yield a dosing solution at 10 mg/mL. […] Each test mouse received 5×10^6 MOLM-13 cells or 10^7 MV4-11 cells (0.2 mL cell suspension) by tail vein injection. Dosing was initiated three days after tumor cell inoculation, which was designated as Day 1 of the study. NOD/SCID mice (n=9-12/group) were randomized according to body weight and dosed. […] Vehicle was administered both IP and PO. The dosing volume for all treatments was 10 mL/kg, scaled to the weight of each individual animal.
(§3) Animals were monitored individually for an endpoint of moribundity due to progression of the leukemia. Full hind limb paralysis, severe ocular proptosis, or moribundity was considered sufficient for euthanasia due to tumor progression. Moribund animals were defined as sick animals unable to reach food and water. These deaths were classified as death on survival study. The time to endpoint (TTE), in days, was recorded for each mouse that died of its disease or was euthanized due to extensive tumor progression. […] An animal classified as having died from treatment-related (TR) causes was assigned a TTE value equal to the day of death. An animal classified as having died from non-treatment-related (NTR) causes, or used for sampling before endpoint, was excluded from TTE calculations and all further analyses. The median TTE value was calculated for each group. The median TTE of treated mice was expressed as a percentage of the median TTE of the control mice (% T/C), and the increase in life span (ILS) was calculated as: ILS=% T/C−100%, where T=median TTE treated, and C=median TTE control. Thus, if T=C, ILS=0%.
Animals were weighed daily on Days 1-5, then twice per week until the completion of the study. […] Individual body weight loss was monitored as per protocol and any animal that exceeded the limits for acceptable body weight loss was euthanized. Group mean body weight loss also was monitored as per protocol. Dosing was suspended in any group that exceeded the limits for acceptable mean body weight loss. If mean body weight recovered, then dosing may be resumed in that group, but at a lower dosage or less frequent dosing schedule. Acceptable toxicity for the maximum tolerated dose was defined as a group mean body-weight loss of less than 20% during the study and not more than one TR death among ten treated animals. […] A death was classified as NTR if there was no evidence that death was related to treatment side effects or tumor progression. Non-treatment-related deaths may be further characterized based on cause of death. A death may be classified as NTRa if it resulted from an accident or human error. A death may be classified as NTRu if the cause of death is unknown and there is no available evidence of death related to treatment side effects, metastasis, accident or human error, although death due to these etiologies cannot be excluded. Survival was analyzed by the Kaplan-Meier method, based on TTE values. The logrank (Mantel-Cox) and Gehan-Breslow-Wilcoxon tests determined the significance of the difference between the overall survival experiences (survival curves) of two groups, based on TTE values.
These experiments were repeated with a second FLT3-ITD cell line, MOLM-13.

The test system of assay [3] is MV4-11 xenograft models. Briefly: Disseminated MV4-11 xenograft survival study. Conditions: MV4-11, NCG mice, vehicle=29.5. Type of assay: in vivo. The method, then:
as §1
as §2, with “NOD/SCID mice (n=9-12/group) were randomized according to body weight and dosed.” left out
as §3
Animals were weighed daily on Days 1-5, then twice per week until the completion of the study. […] Individual body weight loss was monitored as per protocol and any animal that exceeded the limits for acceptable body weight loss was euthanized. Group mean body weight loss also was monitored as per protocol. Dosing was suspended in any group that exceeded the limits for acceptable mean body weight loss. If mean body weight recovered, then dosing may be resumed in that group, but at a lower dosage or less frequent dosing schedule. […] Survival was analyzed by the Kaplan-Meier method, based on TTE values. The logrank (Mantel-Cox) and Gehan-Breslow-Wilcoxon tests determined the significance of the difference between the overall survival experiences (survival curves) of two groups, based on TTE values.

In the case of `Nc1ncn([C@@H]2O[C@H](CO)[C@@H](O)[C@H]2O)c(=O)n1` [5-azacytidine, 4-amino-1-B-D-ribofuranosyl-1,3,5-triazin-2(1H)-one], the “start of MCL-1 degradation after treatment” value was determined as 6 h in assay [1] (KG1α), 6 h in assay [1] (MV4-11) and 16 h in assay [1] (THP-1). For the same molecule, in assay [1] (OCI-AML2), the MCL-1 degradation result is given as “did not lead to any degradation of MCL-1”. The “extent of MCL-1 degradation” value in assay [1] (THP-1, by 24 hours) is recorded as “incomplete degradation by 24 hours”. Also, the Median survival is reported as 32 days in assay [2] (HELD 5-azacytidine 3 mg/kg IP qd×5, alone or with midostaurin 100, gilteritinib 4 or venetoclax 100 mg/kg PO qd×21); 36 days in assay [2] (LEED 5-azacytidine 1 mg/kg IP qd×15, alone or with midostaurin 100, gilteritinib 4 or venetoclax 100 mg/kg PO qd×21); 35 in assay [3] (HELD 5-azacytidine 3 mg/kg qd×5, alone or with venetoclax or midostaurin 100 mg/kg qd×21); 35 in assay [3] (LEED 5-azacytidine 1 mg/kg qd×5×3, alone or with venetoclax or midostaurin 100 mg/kg qd×21). For the same molecule, the “survival compared to vehicle alone” value in assay [2] (HELD 5-azacytidine 3 mg/kg IP qd×5, alone or in combination) is “statistically significantly increases in survival”; in assay [2] (LEED 5-azacytidine 1 mg/kg IP qd×15, alone or in combination), “statistically significantly increases in survival”.
